Here are results for three compounds from ChEMBL document CHEMBL5532670, “Discovery of Tetrahydropyrazolopyrazine Derivatives as Potent and Selective MYT1 Inhibitors for the Treatment of Cancer” (J Med Chem, 2024).

The nature of data set [1]: in vivo. The conditions noted are these: Sprague-Dawley, rat, iv, 1 mg/kg.
Data set [2] is described as follows: MRT (0 to t) in Sprague-Dawley rat at 1 mg/kg, iv measured after 24 hrs. Type of data set: ADME, organism-based. To be noted: in vivo.
Data set [3] can be described thus: in vitro. The conditions noted are these: mouse, hepatocytes.
Data set [4] can be described thus: Tmax in Sprague-Dawley rat at 20 mg/kg, po measured after 24 hrs. Type of data set: ADME, organism-based. The conditions noted are these: in vivo.
Data set [5] is described as follows: Tmax in CD-1 mouse at 30 mg/kg, po measured after 24 hrs. The conditions noted are these: in vivo. Type of data set: ADME, organism-based.
Data set [6] is described as follows: in vivo. To be noted: Sprague-Dawley, rat, iv, 1 mg/kg. This is another data set of the same source.
Data set [7] is described as follows: AUC (0 to t) in CD-1 mouse at 30 mg/kg, po measured after 24 hrs. Type of data set: ADME, organism-based. To be noted: in vivo.
A short description of data set [8]: in vivo. To be noted: CD-1, mouse, iv, 1 mg/kg.
Data set [9] in a line: in vitro. The conditions noted are these: human, Caco-2.
Data set [10] can be described thus: Oral bioavailability in Sprague-Dawley rat at 20 mg/kg measured after 24 hrs. Type of data set: ADME, organism-based. The conditions noted are these: in vivo.
A short description of data set [11]: MRT (0 to t) in CD-1 mouse at 1 mg/kg, iv measured after 24 hrs. Type of data set: ADME, organism-based. To be noted: in vivo.
Data set [12] in a line: Oral bioavailability in CD-1 mouse at 30 mg/kg measured after 24 hrs. The data set is classed as ADME, organism-based. To be noted: in vivo.
Data set [13] can be described thus: in vivo. To be noted: CD-1, mouse, iv, 1 mg/kg. The source holds these as a separate data set.
Data set [14] in a line: Cmax in Sprague-Dawley rat at 20 mg/kg, po measured after 24 hrs. Type of data set: ADME, organism-based. The conditions noted are these: in vivo.
Data set [15] in a line: Drug concentration in mouse plasma assessed as free fraction administered for 21 days and measured after 8 hrs post dose. The data set is classed as ADME. The conditions noted are these: 504 h, time 21 day.
The nature of data set [16]: Cmax in CD-1 mouse at 30 mg/kg, po measured after 24 hrs. Type of data set: ADME, organism-based. To be noted: in vivo.
The nature of data set [17]: Oral bioavailability in Sprague-Dawley rat at 10 mg/kg measured after 24 hrs. Type of data set: ADME, organism-based. To be noted: in vivo.
Data set [18] in a line: Cmax in CD-1 mouse at 10 mg/kg, po measured after 24 hrs. The conditions noted are these: in vivo. The data set is classed as ADME, organism-based.
Data set [19] can be described thus: Oral bioavailability in CD-1 mouse at 10 mg/kg measured after 24 hrs. Type of data set: ADME, organism-based. The conditions noted are these: in vivo.
The nature of data set [20]: Tmax in Sprague-Dawley rat at 10 mg/kg, po measured after 24 hrs. Type of data set: ADME, organism-based. The conditions noted are these: in vivo.
Data set [21] can be described thus: AUC (0 to t) in CD-1 mouse at 10 mg/kg, po measured after 24 hrs. The data set is classed as ADME, organism-based. To be noted: in vivo.
The nature of data set [22]: Cmax in Sprague-Dawley rat at 10 mg/kg, po measured after 24 hrs. The conditions noted are these: in vivo. The data set is classed as ADME, organism-based.
Data set [23] can be described thus: Tmax in CD-1 mouse at 10 mg/kg, po measured after 24 hrs. The data set is classed as ADME, organism-based. To be noted: in vivo.
The nature of data set [24]: in vivo. The conditions noted are these: CD-1, mouse, po, 5 mg/kg.
A short description of data set [25]: AUC (0 to t) in Sprague-Dawley rat at 5 mg/kg, po measured after 24 hrs. Type of data set: ADME, organism-based. The conditions noted are these: in vivo.
Data set [26] can be described thus: AUC (0 to t) in CD-1 mouse at 5 mg/kg, po measured after 24 hrs. The conditions noted are these: in vivo. The data set is classed as ADME, organism-based.
Data set [27] can be described thus: in vivo. To be noted: Sprague-Dawley, rat, po, 5 mg/kg.
Data set [28] in a line: in vivo. To be noted: Sprague-Dawley, rat, po, 5 mg/kg. This is another data set of the same source.
The nature of data set [29]: in vivo. The conditions noted are these: Sprague-Dawley, rat, po, 5 mg/kg. The source holds these as a separate data set.
The nature of data set [30]: in vivo. To be noted: CD-1, mouse, po, 5 mg/kg. This is another data set of the same source.
The nature of data set [31]: in vivo. To be noted: CD-1, mouse, po, 5 mg/kg. This is another data set of the same source.

As for `Cc1ccc(O)c(C)c1-n1c(N)c(C(=O)N2CCn3nccc3C2)c2nc(C3CC3)c(C)nc21`, the results for the clearance at 24 h in the data set “in vivo [1]” and in the data set “in vivo [8]” were 49.1 mL/min/kg and 122 mL/min/kg, respectively. For the same compound, the mean residence time (MRT last) at 24 h in data set [2] was found to be 28.2 min; in data set [11] it was 10.2 min. The CLhep predicted in “in vitro [3]” is 83.5 mL/min/kg. Besides, the Tmax is 40.2 min in [4] and 15 min in data set [5]. In addition, the distribution volume (Vd) at 24 h in the data set “in vivo [6]” was 1.4 L/kg; in the data set “in vivo [13]”, 1.3 L/kg. In addition, the AUC(0-t) at 24 h in [7] was 2310 ng·h/mL. The same compound gave a Papp A→B at 2 h in the data set “in vitro [9]” of 1 ×10⁻⁶ cm/s. For the same compound, the results for the bioavailability in data set [10] and in [12] were 55.9% and 55.8%, respectively. Also, the Cmax was found to be 1780 ng/mL in data set [14] and 1800 ng/mL in [16]. Moreover, the “Cp(f)” value in data set [15] came out at 60.7 nM.
Turning to `Cc1ccc(O)c(C)c1-n1c(N)c(C(=O)N2CCn3nccc3C2)c2nc(C)c(C)nc21`, the clearance at 24 h in “in vivo [1]” is 46.8 mL/min/kg; in the data set “in vivo [8]”, 149 mL/min/kg. Further, the mean residence time (MRT last) at 24 h in data set [2] was found to be 24.6 min; in [11] it was 6.6 min. The bioavailability in data set [17] turned out to be 50.9%; in data set [19] it was 29.3%. In addition, the CLhep predicted in the data set “in vitro [3]” is 85.4 mL/min/kg. Moreover, the Cmax came out at 902 ng/mL in [18] and 1410 ng/mL in data set [22]. The Vd at 24 h was 1.2 L/kg in “in vivo [6]” and 0.99 L/kg in the data set “in vivo [13]”. Besides, the Tmax in data set [20] and in data set [23] was 15 min throughout. For the same compound, the AUC(0-t) at 24 h in data set [21] is 330 ng·h/mL. The same compound had a Papp A→B at 2 h in the data set “in vitro [9]” of 1.48 ×10⁻⁶ cm/s.
As for `Cc1cc2c(C(N)=O)c(N)n(-c3c(C)ccc(O)c3C)c2nc1C` [LUNRESERTIB], the clearance at 24 h turned out to be 37.6 mL/min/kg in the data set “in vivo [1]” and 85.7 mL/min/kg in the data set “in vivo [8]”. For the same compound, the results for the MRT last at 24 h in [2] and in data set [11] were 33.6 min and 23.4 min, respectively. In addition, the Tmax at 24 h in “in vivo [24]” was determined as 24 min; in “in vivo [27]”, 15 min. Further, the CLhep predicted in the data set “in vitro [3]” was 79.4 mL/min/kg. For the same compound, the AUC(0-t) at 24 h stood at 1720 ng·h/mL in data set [25] and 539 ng·h/mL in data set [26]. The Vd at 24 h in “in vivo [6]” came out at 1.4 L/kg; in “in vivo [13]”, 2.3 L/kg. For the same compound, the bioavailability at 24 h was 78% in the data set “in vivo [28]” and 55.8% in “in vivo [31]”. Moreover, the Papp A→B at 2 h in “in vitro [9]” amounted to 11 ×10⁻⁶ cm/s. For the same compound, the Cmax at 24 h in “in vivo [29]” was found to be 1360 ng/mL; in “in vivo [30]”, 511 ng/mL. For the same compound, the “Cp(f)” value in [15] came to 39.3 nM.

By clearance is commonly meant the rate of elimination divided by the concentration. Low values mean a low capacity for elimination, high ones a high capacity for elimination. What is called MRT last is the average time that molecules of a dose stay in the body. Usually Tmax stands for the time at which the peak concentration occurs. The term Vd denotes the apparent volume that relates the amount in the body to the concentration in plasma or blood. Lower therefore signals little distribution into tissue. As a reminder, the AUC(0-t) is exposure summed from dosing to a finite time, without extrapolation to infinity. The low end stands for less exposure, the high end for more exposure. Usually Papp A→B stands for the apparent permeability from the apical to the basolateral side of a cell layer. High values mean fast passage, low ones slow passage. The bioavailability is dose-corrected exposure relative to a reference, in per cent. Broadly, the Cmax is the maximum level reached in the sampled fluid or tissue.
